The values below come from patent US20250144050A1, “AMINOTHIOL-CONJUGATES, COMPOSITIONS, AND METHODS OF USE THEREOF” (THE BURLINGTON HC RESEARCH GROUP, INC., priority 2021, published 2025).

Data set [1] relates to SKOV3 ovarian cancer cells. The data set is classed as cell-based.
Experimental: (§1) Trypan Blue exclusion was applied as a complementary confirmation probe for cell death.
(§2) Statistical comparisons of differences in individual dose-response metrics between individual/paired drug treatments and various cell lines were conducted using the Student's t-test, with P-values <0.05 considered significant.
(§3) Relative cell growth inhibition values for differing levels each drug alone and in combination were input into SynergyFinder to generated dose-response curves for each drug alone, to produce a dose-response matrix, to visualize the distribution of areas of differing degrees of synergism in a 2-dimension heatmap and 3-dimension volcano plot, and to calculate average and maximum synergy scores in selected human cancer cell lines. […] Synergy scores <10 means that the interaction between two drugs was likely to be antagonistic; scores from −10 to 10 means the interaction between two drugs was likely to be additive; and scores >10 means the interaction between two drugs was likely to be synergistic.
Another data set deals with PC3 cells. The following applies: cited from earlier work.
The test system of another data set is C3H/10T1/2 cells. The following applies: 1 milliM; before, during, and after radiation exposure; cited from earlier work.
The conditions of data set [2]: injection at 500-910 mg/m^2; cited from earlier work.
The conditions of data set [3]: some in vitro studies; cited from earlier work.
For data set [4] the following is noted: mice, cited from earlier work.
Another data set deals with H1975 cells. The note with it: H1975, each drug alone, 48 h.
For data set [5] the following is noted: cited from earlier work.
Another data set concerns NCI-H460 NSCLC cells. It is filed as cell-based. The following applies: NCI-H460; each drug alone; 48 h.
In data set [6] the test system is HMESO-1 malignant mesothelioma cells. It is filed as cell-based. The note with it: HMESO-1; each drug alone; 48 h.
Experimental: as §1, §2, §3
The subject of data set [7] is PPM-Mill malignant mesothelioma cells. It is filed as cell-based. The note with it: PPM-Mill; each drug alone; 48 h.
Experimental: as §1, §2, §3
Data set [8] relates to TOV21G ovarian cancer cells. The data set is classed as cell-based. The note with it: TOV21G, 48 h.
Experimental: as §1, §2, §3
Another data set has as its system MDA-MB-231 cells. The following applies: cited from earlier work.
The subject of a further data set is metastatic melanoma. The note with it: patients with advanced malignant melanoma; cited from earlier work.
In the next data set the test system is human cancer cell lines. Briefly: CyQUANT cell viability assay, 48-hour exposure, panel averages. The following applies: for GI50: Homo sapiens, 48 h. How it is done:
After drug treatments, fluorescence readings from 96-well plates were obtained using the CyQUANT dye and compared to standard curves for each cell line to determine cell viability. […] Trypan blue exclusion was used to estimate cell numbers in a few pilot experiments and was thereafter applied to confirm cell death.
A series of experiments was conducted to assess the relative efficacy of 4SP65, 1LP65, and amifostine as single agents in the same human cancer cell lines. First, the effectiveness of 4SP65 was tested against 15 cancer cell lines derived from seven tissues. […] The effectiveness of 0 to ≤500 μM amifostine was tested in sets of cancer cell lines reported to have either medium, high, or no expression of alkaline phosphatase.
Trans. R Soc. Lond. […] Using cell numbers based on fluorescence measurements and standard curves [time zero, (Tz), control growth, (C), and test growth in the presence of drug at five or more concentration levels (Ti)], the percentage growth was calculated at each drug concentration level. The percentage of growth inhibition was calculated as follows:
The LC50/99 was calculated using Equation 2=−50 and Eq. 2=−99, respectively. […] For NHMECs, the relationships between drug exposure levels and fluorescence units were used to define dose-response metrics. The selectivity index (SI) values for individual drug treatments were calculated as IC50 levels in NHMECs divided by the IC50 values in cancer cell lines.

Another data set concerns radiation-induced tumors. The following applies: WR2721 plus radiation (87% with radiation alone); cited from earlier work.
For data set [9] the following is noted: 400 mg/kg; 206 cGy gamma rays; female mice; cited from earlier work.
The next data set deals with mouse splenocytes. The note with it: cited from earlier work.
In the next data set the test system is angiostatin. The note with it: cited from earlier work.
The test system of a further data set is Sa-NH sarcoma cells. The note with it: 50 mg/kg every other day for 6 days; delayed from 12 days; cited from earlier work.
The conditions of data set [10]: cited from earlier work. This is another data set of the same source.
For data set [11] the following is noted: Children; cited from earlier work.
[12] abbreviates: each drug alone, 48 h, gefitinib series.
The mark [13] stands for this setting: each drug alone, 48 h, cisplatin series.

Read-outs that look alike come from different tables or passages of the source. Some results are limits rather than exact numbers.

Experimental for A549 NSCLC cells: as §1, §2, §3
Experimental for H1975 cells: as §1, §2, §3
Experimental for NCI-H460 NSCLC cells: as §1, §2, §3

With `CC(=O)O[C@H]1C(=O)[C@@]2(C)[C@H]([C@H](OC(=O)c3ccccc3)[C@]3(O)C[C@H](OC(=O)[C@H](O)[C@@H](NC(=O)c4ccccc4)c4ccccc4)C(C)=C1C3(C)C)[C@]1(OC(C)=O)CO[C@@H]1C[C@@H]2O` [paclitaxel, reference compound], in data set [1] (SKOV3 cells), the “fold lower dose than 1LP65 at the GI50 level” value turned out to be 77 fold. Besides, the GI50 with PC3 cells was 36.4 µM.
As for `NCCCNCCS` [WR1065, 2-(3-aminopropyl)aminoethanethiol], in the data set with C3H/10T1/2 cells, the protection factor is 3.23. Further, in data set [2], the peak plasma level was roughly 100 µM and the “plasma T1/2” value was roughly 0.167 h. Also, in data set [3], the lowest efficacious concentration is 0.4 µM. The “maximally tolerated dose (MTD)” value in data set [4] (i.p.) is 432 mg/kg BW. Moreover, the “maximally tolerated dose (MTD)” value in data set [4] (p.o.) is 720 mg/kg BW.
With `CNCCCNCCCS` [WR151326], the protection factor in the data set with C3H/10T1/2 cells is 1.8.
By TGI is commonly meant the concentration giving total growth inhibition. Higher therefore signals less potent growth arrest. Regarding `COc1cc2ncnc(Nc3ccc(F)c(Cl)c3)c2cc1OCCCN1CCOCC1` [gefitinib, reference compound], the LC99 result with A549 NSCLC cells (setting [12]) and in the data set on H1975 cells was “ND (>25) μM” in each case. The TGI was greater than 25 µM in the data set on A549 NSCLC cells (setting [12]); “ND (>25) μM” in the data set with A549 NSCLC cells (each drug alone, 48 h, gefitinib series, listed as GEF); greater than 25 µM in the data set with H1975 cells; “ND (>25) μM” in the data set with H1975 cells (listed as GEF). The Cmax in data set [5] (250 mg daily, cancer patients, read-out: Cmax plasma concentrations) is 0.5 to 1 µM. Moreover, the trough levels in data set [5] (after 3 days of treatment) was 0.257 to 4.50 µM; in [5] (after 8 days of treatment), 0.282 to 6.55 µM. Besides, in data set [5] (in vivo), the elimination half-life is 48 h.
By IC50 is commonly meant the concentration that inhibits the measured activity by half. As to `N.N.[Cl][Pt][Cl]` [cisplatin, reference compound], the GI50 is 3.1 ± 0.1 µM in the data set with NCI-H460 NSCLC cells; 3 ± 0.4 µM in [6]; 27.2 ± 3.4 µM in [7]; 5.3 ± 0.4 µM in [1] (SKOV3, each drug alone, 48 h); 2.2 ± 0.4 µM in [8] (each drug alone); 3.5 ± 0.7 µM in the data set on A549 NSCLC cells (setting [13]). Moreover, the GI50 in the data set on MDA-MB-231 cells was 22.4 µM. The IC50 is 4 ± 0.1 µM in the data set on NCI-H460 NSCLC cells; 8.6 ± 1.1 µM in data set [6]; 40.5 ± 8.1 µM in data set [7]; 6.7 ± 0.6 µM in data set [1] (SKOV3, each drug alone, 48 h); 3 ± 0.3 µM in data set [8] (each drug alone); 4.7 ± 0.8 µM in the data set on A549 NSCLC cells (setting [13]). In addition, the LC99 result in the data set with NCI-H460 NSCLC cells was “ND (>15) μM”; in [6] it was “ND (>15) μM”; in data set [7], “ND (>100) μM”; in [1] (SKOV3, each drug alone, 48 h), “ND (>21) μM”; in data set [8] (each drug alone), 17.2 µM; in data set [8] (each drug alone, listed as DDP) it was 17.2 ± 5.2 µM. Besides, in the data set on A549 NSCLC cells (setting [13]), the LC99 is 24.4 ± 2.6 µM. In addition, the TGI result with NCI-H460 NSCLC cells was “ND (>15) μM”; in [6] it was 6.7 ± 0.7 µM; in data set [7] it was “ND (>100) μM”; in data set [1] (SKOV3, each drug alone, 48 h), “ND (>21) μM”; in data set [8] (each drug alone) it was 6.7 ± 0.3 µM; with A549 NSCLC cells (setting [13]), 8.2 ± 1.0 µM. Further, the “LC99, amount of each drug in combination” value in [8] (4SP65-cisplatin combined) was 5.9 µM; in the data set with A549 NSCLC cells (4SP65-cisplatin combined, 48 h) it was 7 µM. For the same molecule, in the data set on A549 NSCLC cells (6 μM cisplatin alone), the “reduction in starting cell numbers” value was found to be 56%. For the same molecule, the partial response in the data set with metastatic melanoma is 10%.
For the molecule `NCCCNCCSP(=O)(O)O` [amifostine], the GI50 was 47 to 81 µM in the data set with human cancer cell lines (read-out: GI50, range, four of 14 cell lines with moderate/high alkaline phosphatase expression, 48 hours); 113 to 378 µM in the data set on human cancer cell lines (read-out: GI50, range, seven of 14 cell lines, 48 hours); greater than 500 µM in the data set on human cancer cell lines (read-out: exposure failing to induce growth inhibitory effects (GI50), three of 14 cell lines, 48 hours). The “exposure without cytolytic effects (LC50/LC99)” value with human cancer cell lines (any of 14 cell lines, 48 hours) was greater than 500 µM. The “concentration inducing TGI level effects” value with human cancer cell lines (only HCC38 and PC3) was greater than 100 µM. In addition, in the data set with radiation-induced tumors, the mice developing tumors is given as 26%. Further, the “extension of total life expectancy” value in data set [9] was 65 days. The “reduction of cyclophosphamide-induced HPRT mutations” value in the data set on mouse splenocytes is 8 fold. In addition, in the data set with angiostatin (200 mg/ml (instead of 50 mg/ml)), the “change of angiostatin levels” value is “did not change angiostatin levels”. The “increase of serum angiostatin levels” value in the data set with angiostatin (mouse, in vivo) is reported as 4 fold. Moreover, the “days for tumors to reach ideal size for amputation” value with Sa-NH sarcoma cells is 13 days. For the same molecule, the “level with no observable cytotoxicity” value was > 17,000 picomol/10 (6) cells in data set [10] (kidney (in vivo)), > 7400 picomol/10 (6) cells in data set [10] (liver (in vivo)) and > 3000 picomol/10 (6) cells in data set [10] (small intestine (in vivo)). Besides, in data set [11], the “single dose with no untoward effects” value is “up to 2700 mg/m2”.
